Measured values reported in ChEMBL document CHEMBL1201862, “PubChem BioAssay data set” (2004).
Activity calls are given as the source filed them. For most assays here, no stated cut-off is given here; in the data, actives have a measured EC50 and inactives only a lower limit.

Key:
[1] = inhibitors of firefly luciferase expression or activity, dose response, H4 neuroglioma cells, luminescence (AID 1990); format: functional, cell-based
[2] = Luminescence Cell-Based Dose Response HTS to Identify Inhibitors of 5'UTR Stem-Loop Driven Prion Protein mRNA Translation in H4 Neuroglioblastoma Cells. [Related pubchem assays: 1827 (Project Summary), 1813 (Primary HTS)]; format: functional
[3] = inhibitors of SNCA 5'UTR-driven reporter translation, confirmation, H4 neuroglioma cells, luminescence (AID 1988); format: functional, cell-based
[4] = cytotoxicity in HPDE-C7 cells, cell-based, fluorescence, HTS (AID 430); format: functional; settings: Homo sapiens
[5] = cytotoxicity in KRAS-transformed pancreatic duct cells, primary screen, cell-based, fluorescence, HTS (AID 431); format: functional; settings: Homo sapiens;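 further: cell line used: HPDE-C7K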
[6] = molecular target: Voltage-dependent T-type calcium channel subunit alpha-1H (Homo sapiens, UniProt O95180); format: functional;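 further: channel activity triggered by adding a high calcium stimulation buffer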
Voltage-dependent T-type calcium channel subunit alpha-1H, sequence (O95180 whole entry): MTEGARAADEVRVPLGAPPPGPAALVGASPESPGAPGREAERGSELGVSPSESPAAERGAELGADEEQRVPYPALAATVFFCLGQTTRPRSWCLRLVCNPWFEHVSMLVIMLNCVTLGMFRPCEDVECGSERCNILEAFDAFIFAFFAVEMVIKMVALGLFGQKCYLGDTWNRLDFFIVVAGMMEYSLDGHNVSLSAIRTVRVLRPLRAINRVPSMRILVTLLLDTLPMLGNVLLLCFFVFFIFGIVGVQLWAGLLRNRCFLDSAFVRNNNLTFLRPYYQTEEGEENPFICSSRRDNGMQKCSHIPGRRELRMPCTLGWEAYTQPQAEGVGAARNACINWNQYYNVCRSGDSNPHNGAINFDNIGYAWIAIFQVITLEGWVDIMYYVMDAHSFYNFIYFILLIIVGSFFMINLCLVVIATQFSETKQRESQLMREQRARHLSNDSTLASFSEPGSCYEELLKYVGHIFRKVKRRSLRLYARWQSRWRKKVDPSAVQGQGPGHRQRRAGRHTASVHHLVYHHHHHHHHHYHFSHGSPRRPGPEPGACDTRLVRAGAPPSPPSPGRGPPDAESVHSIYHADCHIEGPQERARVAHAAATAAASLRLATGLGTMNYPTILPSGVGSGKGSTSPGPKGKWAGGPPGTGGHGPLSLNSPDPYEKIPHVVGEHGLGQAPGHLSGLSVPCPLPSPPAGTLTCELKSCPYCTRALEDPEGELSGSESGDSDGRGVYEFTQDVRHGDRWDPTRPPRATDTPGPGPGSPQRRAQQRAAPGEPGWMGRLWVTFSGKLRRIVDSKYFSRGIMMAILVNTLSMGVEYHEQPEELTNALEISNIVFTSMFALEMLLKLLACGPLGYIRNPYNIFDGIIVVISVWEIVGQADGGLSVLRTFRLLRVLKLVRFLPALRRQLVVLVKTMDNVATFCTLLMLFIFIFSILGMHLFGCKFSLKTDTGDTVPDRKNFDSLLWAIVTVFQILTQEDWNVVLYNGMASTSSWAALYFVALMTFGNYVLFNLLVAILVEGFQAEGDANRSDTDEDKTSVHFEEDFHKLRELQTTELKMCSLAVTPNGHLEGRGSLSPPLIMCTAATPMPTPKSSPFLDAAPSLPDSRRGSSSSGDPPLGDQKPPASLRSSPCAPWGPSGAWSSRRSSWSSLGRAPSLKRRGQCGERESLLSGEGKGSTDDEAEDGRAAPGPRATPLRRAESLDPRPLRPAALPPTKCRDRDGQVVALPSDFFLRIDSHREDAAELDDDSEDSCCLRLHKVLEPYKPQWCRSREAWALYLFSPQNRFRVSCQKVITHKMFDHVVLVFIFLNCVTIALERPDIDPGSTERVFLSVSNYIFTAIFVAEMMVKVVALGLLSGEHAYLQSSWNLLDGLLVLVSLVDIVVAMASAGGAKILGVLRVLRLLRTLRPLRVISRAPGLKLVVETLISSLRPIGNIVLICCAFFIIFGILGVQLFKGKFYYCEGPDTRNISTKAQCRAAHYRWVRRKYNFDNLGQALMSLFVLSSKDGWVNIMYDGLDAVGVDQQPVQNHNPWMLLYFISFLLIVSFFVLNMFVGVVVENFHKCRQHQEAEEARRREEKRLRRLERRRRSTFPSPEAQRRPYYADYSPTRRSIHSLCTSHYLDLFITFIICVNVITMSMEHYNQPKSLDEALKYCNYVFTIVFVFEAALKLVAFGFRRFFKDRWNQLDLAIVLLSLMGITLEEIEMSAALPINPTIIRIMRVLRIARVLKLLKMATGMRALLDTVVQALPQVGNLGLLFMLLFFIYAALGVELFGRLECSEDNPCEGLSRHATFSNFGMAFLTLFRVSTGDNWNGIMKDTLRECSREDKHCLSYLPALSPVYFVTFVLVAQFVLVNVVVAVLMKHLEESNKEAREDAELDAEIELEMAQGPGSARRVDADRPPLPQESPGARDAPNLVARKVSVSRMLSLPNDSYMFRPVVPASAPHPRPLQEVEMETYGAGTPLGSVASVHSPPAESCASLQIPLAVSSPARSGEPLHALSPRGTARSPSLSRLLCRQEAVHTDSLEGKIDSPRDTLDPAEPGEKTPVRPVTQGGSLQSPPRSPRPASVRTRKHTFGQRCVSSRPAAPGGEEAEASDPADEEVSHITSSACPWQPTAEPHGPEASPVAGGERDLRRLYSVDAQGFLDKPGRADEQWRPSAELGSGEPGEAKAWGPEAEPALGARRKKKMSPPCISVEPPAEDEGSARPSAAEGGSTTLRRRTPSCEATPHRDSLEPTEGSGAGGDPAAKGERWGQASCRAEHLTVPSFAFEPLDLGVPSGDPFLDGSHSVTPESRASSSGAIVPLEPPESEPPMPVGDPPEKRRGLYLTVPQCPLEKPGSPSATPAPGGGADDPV

[7] = A Cell Based Secondary Assay To Explore Cytotoxicity of Compounds that Sensitize Mycobacterium Tuberculosis to Beta-Lactam Antibiotics.; format: functional
[8] = Luminescence Cell-Based Dose Response to Identify Activators of 5'UTR Stem-Loop Driven Prion Protein mRNA Translation in H4-C Neuroglioblastoma Cells. [Related pubchem assays: 1829 (Project Summary), 1814 (Primary HTS)]; format: functional
[9] = Luminescence Cell-Based Dose Response HTS to Identify Activators of Luciferase Translation or Activity in H4 […] Cells. [Related pubchem assays: 1829 (Project Summary), 1814 (Primary HTS)]; format: functional
H4 = experiment: Luminescence Cell-Based Dose Response HTS to Identify Activators of 5'UTR Stem-Loop Driven Prion Protein mRNA Translation in H4 Neuroglioblastoma Cells. [Related pubchem assays: 1829 (Project Summary), 1814 (Primary HTS)]; format: functional; settings: Homo sapiens
Beta-galactosidase = Beta-galactosidase (Escherichia coli, UniProt Q8VNN2); experiment: PubChem AID 485352; format: functional
Beta-galactosidase, sequence (Q8VNN2 whole entry): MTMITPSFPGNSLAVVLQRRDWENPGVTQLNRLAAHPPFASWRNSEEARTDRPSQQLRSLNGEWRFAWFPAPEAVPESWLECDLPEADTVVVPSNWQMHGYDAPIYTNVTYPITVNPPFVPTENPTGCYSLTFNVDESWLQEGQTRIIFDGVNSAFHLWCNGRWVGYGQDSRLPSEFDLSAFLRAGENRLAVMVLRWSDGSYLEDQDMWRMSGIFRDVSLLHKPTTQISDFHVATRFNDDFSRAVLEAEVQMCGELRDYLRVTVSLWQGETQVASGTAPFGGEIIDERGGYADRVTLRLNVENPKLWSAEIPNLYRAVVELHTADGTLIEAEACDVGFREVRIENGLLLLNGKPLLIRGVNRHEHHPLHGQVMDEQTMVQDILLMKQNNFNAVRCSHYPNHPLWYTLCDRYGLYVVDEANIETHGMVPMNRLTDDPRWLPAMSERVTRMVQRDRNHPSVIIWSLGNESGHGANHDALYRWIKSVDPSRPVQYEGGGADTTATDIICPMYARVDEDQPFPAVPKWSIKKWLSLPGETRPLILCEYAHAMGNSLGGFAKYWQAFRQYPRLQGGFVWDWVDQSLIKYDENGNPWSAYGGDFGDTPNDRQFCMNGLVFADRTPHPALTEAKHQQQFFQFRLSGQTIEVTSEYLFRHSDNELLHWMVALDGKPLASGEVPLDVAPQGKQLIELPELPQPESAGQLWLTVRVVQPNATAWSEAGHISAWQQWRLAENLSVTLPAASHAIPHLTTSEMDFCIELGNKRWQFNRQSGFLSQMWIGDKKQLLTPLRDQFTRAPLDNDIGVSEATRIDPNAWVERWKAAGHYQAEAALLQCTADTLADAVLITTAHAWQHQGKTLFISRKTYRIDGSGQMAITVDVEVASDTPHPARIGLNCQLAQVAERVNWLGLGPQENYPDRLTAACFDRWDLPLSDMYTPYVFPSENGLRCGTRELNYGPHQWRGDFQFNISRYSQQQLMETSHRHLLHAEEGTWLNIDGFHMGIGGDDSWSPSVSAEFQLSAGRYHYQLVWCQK

[10] = Luminescence Cell-Based Dose Response to Identify Activators of Luciferase Translation or Activity in H4-C Neuroglioblastoma Cells. [Related pubchem assays: 1829 (Project Summary), 1814 (Primary HTS)]; format: functional
Large T antigen = Large T antigen (Simian virus 40, UniProt P03070); format: functional, Betapolyomavirus macacae;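 further: Confirmatory-stage PubChem screen for compounds that inhibit SV40 T antigen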
Large T antigen, sequence (P03070 whole entry): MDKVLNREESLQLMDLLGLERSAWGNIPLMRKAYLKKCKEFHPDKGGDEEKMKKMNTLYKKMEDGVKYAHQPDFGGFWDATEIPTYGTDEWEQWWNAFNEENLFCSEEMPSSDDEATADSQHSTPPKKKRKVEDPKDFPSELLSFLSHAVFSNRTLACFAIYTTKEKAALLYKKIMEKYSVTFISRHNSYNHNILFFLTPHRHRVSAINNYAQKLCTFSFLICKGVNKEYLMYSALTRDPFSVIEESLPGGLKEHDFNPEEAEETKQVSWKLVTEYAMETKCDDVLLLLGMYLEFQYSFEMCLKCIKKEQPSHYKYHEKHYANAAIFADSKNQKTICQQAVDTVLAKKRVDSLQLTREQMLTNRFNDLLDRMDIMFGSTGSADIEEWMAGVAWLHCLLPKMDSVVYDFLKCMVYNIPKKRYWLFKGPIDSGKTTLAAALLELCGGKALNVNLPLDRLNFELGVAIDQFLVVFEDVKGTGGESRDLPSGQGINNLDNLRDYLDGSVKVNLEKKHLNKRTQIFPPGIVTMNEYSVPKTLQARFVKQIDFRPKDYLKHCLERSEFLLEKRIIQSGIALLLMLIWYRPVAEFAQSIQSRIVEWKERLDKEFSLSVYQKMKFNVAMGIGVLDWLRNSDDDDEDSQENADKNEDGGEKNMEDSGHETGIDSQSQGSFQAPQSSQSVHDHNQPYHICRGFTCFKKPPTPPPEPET

[11] = molecular target: T1, Type-1 angiotensin II receptor (Homo sapiens, UniProt P30556); experiment: AT1 receptor antagonists, dose response, selectivity assay for APJ receptor antagonist project, cell-based, uHTS hits (AID 463214); format: functional;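 further: antagonist potency against angiotensin II stimulated AT1 response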
T1 sequence (P30556 whole entry): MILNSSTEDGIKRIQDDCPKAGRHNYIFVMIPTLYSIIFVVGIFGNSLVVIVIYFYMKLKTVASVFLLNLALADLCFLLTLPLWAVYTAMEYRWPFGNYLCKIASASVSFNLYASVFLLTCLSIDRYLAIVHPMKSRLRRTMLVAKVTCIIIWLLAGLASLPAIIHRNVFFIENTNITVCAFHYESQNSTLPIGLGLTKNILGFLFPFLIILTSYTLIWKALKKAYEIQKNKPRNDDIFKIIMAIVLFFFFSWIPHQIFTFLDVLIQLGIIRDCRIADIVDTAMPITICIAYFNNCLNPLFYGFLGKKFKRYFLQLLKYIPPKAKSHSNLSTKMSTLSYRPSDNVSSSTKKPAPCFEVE

[12] = Luminescence Cell-Based Dose Confirmation to Identify Activators of 5'UTR Stem-Loop Driven Alpha-Synuclein mRNA Translation in H4 Neuroglioblastoma Cells. [Related pubchem assays: 1829 (Project Summary), 1814 (Primary HTS)]; format: functional
[13] = Luminescence Cell-Based Dose Confirmation HTS to Identify Activators of 5'UTR Stem-Loop Driven Alpha-Synuclein mRNA Translation in H4 Neuroglioblastoma Cells. [Related pubchem assays: 1829 (Project Summary), 1814 (Primary HTS)]; format: functional
[14] = molecular target: T2, Microphthalmia-associated transcription factor (Homo sapiens, UniProt O75030); experiment: TRPM1 promoter luciferase signal decrease, dose response, MITF inhibitor project, cell-based, SK-MEL-5, cherry-picked, set 3 (AID 493073); format: functional
T2 sequence (O75030 whole entry): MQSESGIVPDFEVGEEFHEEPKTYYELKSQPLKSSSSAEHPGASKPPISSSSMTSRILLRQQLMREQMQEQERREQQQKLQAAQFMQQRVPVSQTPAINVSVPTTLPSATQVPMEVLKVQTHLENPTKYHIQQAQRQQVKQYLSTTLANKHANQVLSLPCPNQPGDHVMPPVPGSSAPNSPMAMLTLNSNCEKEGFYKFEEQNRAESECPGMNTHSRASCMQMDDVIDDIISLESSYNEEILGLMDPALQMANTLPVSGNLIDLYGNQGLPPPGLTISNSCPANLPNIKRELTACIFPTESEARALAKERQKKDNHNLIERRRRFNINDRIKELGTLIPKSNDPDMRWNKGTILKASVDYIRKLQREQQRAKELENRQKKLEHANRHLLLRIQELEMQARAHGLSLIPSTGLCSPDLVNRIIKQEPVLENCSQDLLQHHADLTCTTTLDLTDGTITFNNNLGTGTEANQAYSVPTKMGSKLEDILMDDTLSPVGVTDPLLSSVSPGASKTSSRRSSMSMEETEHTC

[15] = molecular target: T3, Replicative DNA helicase DnaB (Mycobacterium tuberculosis, UniProt P9WMR3); experiment: DnaB intein splicing inhibitors, dose response, biochemical, cell-free fluorescence (AID 449749); format: functional
T3 sequence (P9WMR3 whole entry): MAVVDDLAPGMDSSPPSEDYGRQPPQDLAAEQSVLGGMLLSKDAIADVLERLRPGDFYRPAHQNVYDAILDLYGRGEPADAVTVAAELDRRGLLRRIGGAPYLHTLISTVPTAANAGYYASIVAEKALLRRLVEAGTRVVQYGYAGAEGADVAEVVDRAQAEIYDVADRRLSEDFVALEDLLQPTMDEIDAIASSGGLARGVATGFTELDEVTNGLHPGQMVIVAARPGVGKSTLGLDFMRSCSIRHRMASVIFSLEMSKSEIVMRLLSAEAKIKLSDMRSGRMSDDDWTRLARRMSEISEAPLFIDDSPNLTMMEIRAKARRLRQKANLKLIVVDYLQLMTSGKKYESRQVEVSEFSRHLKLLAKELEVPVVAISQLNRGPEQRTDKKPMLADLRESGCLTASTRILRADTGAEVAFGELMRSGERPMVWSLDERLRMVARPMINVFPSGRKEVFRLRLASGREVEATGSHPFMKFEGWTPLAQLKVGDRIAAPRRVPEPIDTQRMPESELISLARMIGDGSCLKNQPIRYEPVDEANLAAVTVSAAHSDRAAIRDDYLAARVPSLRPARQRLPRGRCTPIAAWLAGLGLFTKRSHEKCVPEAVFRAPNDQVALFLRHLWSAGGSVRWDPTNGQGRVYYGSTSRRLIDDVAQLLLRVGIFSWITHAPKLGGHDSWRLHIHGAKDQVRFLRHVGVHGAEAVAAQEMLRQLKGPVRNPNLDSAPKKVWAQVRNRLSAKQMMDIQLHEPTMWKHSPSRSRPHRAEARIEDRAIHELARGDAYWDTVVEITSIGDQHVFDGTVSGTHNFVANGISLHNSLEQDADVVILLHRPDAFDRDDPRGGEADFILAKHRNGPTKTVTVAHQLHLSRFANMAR

Protein RecA = molecular target: T4, Protein RecA (Mycobacterium tuberculosis, UniProt P9WHJ3); experiment: Fluorescence Cell-Free Homogeneous Dose Retest to Identify Inhibitors of RecA-Intein Splicing Activity. [Related pubchem assays (depositor defined):AID2097, AID2223, AID489010, AID492950]; format: functional
T4 sequence (P9WHJ3 whole entry): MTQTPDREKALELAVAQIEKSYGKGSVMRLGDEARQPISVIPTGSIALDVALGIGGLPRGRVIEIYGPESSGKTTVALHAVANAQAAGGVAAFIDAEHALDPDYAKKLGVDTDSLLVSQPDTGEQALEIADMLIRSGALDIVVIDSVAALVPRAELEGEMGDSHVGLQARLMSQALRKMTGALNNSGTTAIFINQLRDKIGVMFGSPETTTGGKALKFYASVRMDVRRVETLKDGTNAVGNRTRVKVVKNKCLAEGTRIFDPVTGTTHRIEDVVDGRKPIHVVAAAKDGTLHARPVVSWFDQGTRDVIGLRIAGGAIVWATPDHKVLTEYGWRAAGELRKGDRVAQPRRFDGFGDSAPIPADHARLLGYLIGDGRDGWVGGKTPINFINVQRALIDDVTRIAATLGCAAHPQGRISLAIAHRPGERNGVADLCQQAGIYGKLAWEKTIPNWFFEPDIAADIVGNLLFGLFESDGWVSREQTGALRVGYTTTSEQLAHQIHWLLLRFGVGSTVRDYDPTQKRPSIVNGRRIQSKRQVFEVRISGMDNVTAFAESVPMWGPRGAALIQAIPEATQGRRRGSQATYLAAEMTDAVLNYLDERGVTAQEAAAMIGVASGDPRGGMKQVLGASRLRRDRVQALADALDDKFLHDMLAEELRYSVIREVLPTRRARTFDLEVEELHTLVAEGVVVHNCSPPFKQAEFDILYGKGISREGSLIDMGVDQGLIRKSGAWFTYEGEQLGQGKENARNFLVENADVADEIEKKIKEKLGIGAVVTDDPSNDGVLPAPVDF

SMILES	EC50 [4]	EC50 [5]	EC50 [8]	EC50 [9]	EC50 (H4)	EC50 [10]	EC50 [12]	further results
COc1cc(C)c(C(C)C)cc1S(=O)(=O)n1cnc(C)c1	3.47 µM (active)	4.11 µM (active)						EC50 [1]: > 120 µM (not active); EC50 [2]: > 120 µM (not active); EC50 [3]: 9.12 µM (active); EC50 [6]: 52.3 µM (active)
COc1cc(C(=O)Nc2cccc(-c3cn4cccnc4n3)c2)cc(OC)c1OC								CC50 [7]: > 40 µM (active)
Cc1ccc(SSc2cc(C)ccc2N)c(N)c1			1.21 µM (active)	< 0.1 µM (inconclusive)	42.5 µM (inconclusive)	1.67 µM (active)	5 µM (active)	EC50 (Beta-galactosidase): > 40 µM (inactive); IC50 (Large T antigen): 10.8 µM (active); IC50 [11]: > 40 µM (not active)
O=C(CCl)Nc1cccc(-c2cnc3ccccc3n2)c1			> 12 µM (not active)	2.98 µM (active)	> 60 µM (not active)	0.561 µM (active)	0.7 µM (active)	EC50 [13]: < 0.1 µM (active); AC50 [14]: 4.02 µM (active); AC50 [15]: 53.1 µM (active); EC50 (Protein RecA): 13.3 µM (active)
Cn1c(CCN2CCCCCC2)nc2cc(NC(=O)Nc3ccccc3)ccc21	> 20 µM (not active)	> 20 µM (not active)						
